Patent publication EP2914280B1, “SOMATOSTATIN-DOPAMINE CHIMERIC ANALOGS” (IPSEN PHARMA S.A.S., priority 2012, dated 2014)
Read-outs that look alike come from different tables or passages of the source. Numbered stars: 1 amine (or outer) side, 2 acyl side, 3 side chain; on linkers, the order of the positions; unused ones are H or OH. Bridge positions count the residues as written; N and C are the ends. Square brackets hold non-standard residues; d marks the D form. Peptide text beside a SMILES is read from it. * marks the point of attachment. X1 = CN1C[C@H](CSCCN(CCSC[C@@H]2C[C@@H]3c4cccc5[nH]cc(c45)C[C@H]3N(C)C2)[C@H](CCCCN[*:2])C(=O)[*:1])C[C@@H]2c3cccc4[nH]cc(c34)C[C@H]21; X2 = CN1C[C@H](CSCC(=O)*)C[C@@H]2c3cccc4[nH]cc(c34)C[C@H]21; dDab = NCC[C@@H](N)C(=O)O

Assays:
[1] = target: T1, hSSTR2 (Homo sapiens, UniProt P30874); test: Somatostatin receptor radioligand binding assay (hSSTR2);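 note: radioligand displacement on membranes of CHO-K1 cells stably transfected with human SSTR2, specific binding taken as total minus binding left with 1000 nM SRIF-14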
T1 construct: host or cells: 'Cells expressing hSSTR2'

[2] = target: T2, hDRD2 (Homo sapiens, UniProt P14416); test: cell-based; parameters: host or cells: 'Cells expressing hDRD2'; conditions: for Emax: read-out: hDRD2 %Emax ± SEM
[3] = target: T2, hDRD2; test: biochemical; type: binding; parameters: expressed in transfected cells; host or cells: CHO-K1, pcDNA3.1/GS, zeocin-selected clonal line; membranes
[4] = target: T1, hSSTR2; test: Intracellular calcium mobilization assay (FLIPR Calcium 4), hSSTR2; type: cell-based;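 note: agonist activity measured in cells expressing hSSTR2, seeded in 384-well plates, loaded with Calcium 4 dye, read-out as rise in intracellular calcium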
[5] = CHO-K1 cell membranes, […] [3H]-spiperone, 60 minutes at 25°C, read-out: hDRD2 Ki (nM) ± SEM

T2 sequence (P14416 whole entry): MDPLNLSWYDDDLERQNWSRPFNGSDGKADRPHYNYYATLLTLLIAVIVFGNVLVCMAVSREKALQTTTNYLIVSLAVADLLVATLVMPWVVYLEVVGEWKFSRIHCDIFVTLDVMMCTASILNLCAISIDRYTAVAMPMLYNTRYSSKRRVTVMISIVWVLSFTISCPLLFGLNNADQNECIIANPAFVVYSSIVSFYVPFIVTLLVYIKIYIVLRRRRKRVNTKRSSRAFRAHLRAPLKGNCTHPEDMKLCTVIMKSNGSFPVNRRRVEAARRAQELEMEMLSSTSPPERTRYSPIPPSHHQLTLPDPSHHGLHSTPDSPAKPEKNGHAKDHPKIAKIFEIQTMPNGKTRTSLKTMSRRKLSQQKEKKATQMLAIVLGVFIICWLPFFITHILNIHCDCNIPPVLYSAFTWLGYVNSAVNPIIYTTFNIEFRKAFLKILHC
T1 sequence (P30874 whole entry): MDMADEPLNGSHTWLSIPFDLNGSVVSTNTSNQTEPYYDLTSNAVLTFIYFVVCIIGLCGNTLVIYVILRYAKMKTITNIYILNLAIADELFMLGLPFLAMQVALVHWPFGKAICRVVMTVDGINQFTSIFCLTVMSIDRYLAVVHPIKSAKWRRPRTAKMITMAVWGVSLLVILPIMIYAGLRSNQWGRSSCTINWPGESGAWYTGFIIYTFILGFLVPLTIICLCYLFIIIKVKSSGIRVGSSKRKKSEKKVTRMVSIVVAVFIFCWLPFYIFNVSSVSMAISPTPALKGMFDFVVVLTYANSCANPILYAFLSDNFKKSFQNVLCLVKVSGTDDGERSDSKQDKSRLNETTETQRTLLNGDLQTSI

| SMILES | Ki [1] | Emax [2] | Ki [3] | EC50 [2] | EC50 [4] | Ki [3, 5] | Ki ([1]; CHO-K1 cell membranes, 0.05 nM [125I-Tyr]-seglitide, 60 minutes at 25°C, read-out: hSSTR2 Ki (nM) ± SEM) | Emax ([4]; read-out: hSSTR2 %Emax ± SEM) |
| --- | --- | --- | --- | --- | --- | --- | --- | --- |
| CC(=O)N(CCCNC(CN[C@@H]1CCCCNC(=O)[C@H](Cc2ccc(F)cc2)NC(=O)[C@H]([C@@H](C)O)NC(=O)[C@H](CCCCN)NC(=O)[C@@H](Cc2c[nH]c3ccccc23)NC(=O)[C@H](Cc2ccccc2)NC(=O)[C@H](Cc2ccccc2)NC(=O)[C@H](CCCNC(=N)N)NC1=O)Cc1ccc(O)cc1)C[C@@H]1C[C@@H]2c3cccc4[nH]cc(c34)C[C@H]2N(C)C1 (single isomer, unassigned) [Compound 28A, 3-[N-acetyl-N-(D-6-methyl-8β-ergolinylmethyl)]-aminopropionyl-psi(CH2NH)-Tyr-psi(CH2NH)-cyclo(DLys-Arg-Phe-Phe-DTrp-Lys-Thr-4FPhe)] | 0.04 ± 0.02 nM | 79.7 ± 11.4% | 14 ± 3.4 nM |  |  |  |  |  |
| C[C@@H](O)[C@@H]1NC(=O)[C@H](CCCCN)NC(=O)[C@@H](Cc2c[nH]c3ccccc23)NC(=O)[C@H](Cc2ccccc2)NC(=O)[C@H](Cc2ccccc2)NC(=O)[C@H](CCCNC(=N)N)NC(=O)[C@H](NCCCC[C@@H]2C[C@@H]3c4cccc5[nH]cc(c45)C[C@H]3N(C)C2)CCCCNC(=O)[C@H](Cc2ccc(F)cc2)NC1=O [Compound 2, (D-6-methyl-8β-ergolinyl)-butanoyl-psi(CH2NH)-cyclo(DLys-Arg-Phe-Phe-DTrp-Lys-Thr-4FPhe)] | 0.79 ± 0.06 nM | 84 ± 7.6% | 6.9 ± 0.4 nM | 55.7 ± 12.4 nM | 21.1 ± 6.7 nM |  |  |  |
| C[C@@H](O)[C@@H]1NC(=O)[C@H](CCCCN)NC(=O)[C@@H](Cc2c[nH]c3ccccc23)NC(=O)[C@H](Cc2ccccc2)NC(=O)[C@H](Cc2ccccc2)NC(=O)[C@H](CCCNC(=N)N)NC(=O)[C@H](NCCCCC[C@@H]2C[C@@H]3c4cccc5[nH]cc(c45)C[C@H]3N(C)C2)CCCCNC(=O)[C@H](Cc2ccc(F)cc2)NC1=O [Compound 3, (D-6-methyl-8β-ergolinyl)-pentanoyl-psi(CH2NH)-cyclo(DLys-Arg-Phe-Phe-DTrp-Lys-Thr-4FPhe)] | 0.72 ± 0.17 nM | 84.1 ± 12.2% | 45.2 ± 4.9 nM | 212 ± 85.6 nM | 137 ± 63.8 nM |  |  |  |
| C[C@@H](O)[C@@H]1NC(=O)[C@H](CCCCN)NC(=O)[C@@H](Cc2c[nH]c3ccccc23)NC(=O)[C@H](Cc2ccccc2)NC(=O)[C@H](Cc2ccccc2)NC(=O)[C@H](CCCNC(=N)N)NC(=O)[C@H](NCCSC[C@@H]2C[C@@H]3c4cccc5[nH]cc(c45)C[C@H]3N(C)C2)CCCCNC(=O)[C@H](Cc2ccc(F)c(F)c2)NC1=O [Compound 6A, Dop1-psi(CH2NH)-cyclo(DLys-Arg-Phe-Phe-DTrp-Lys-Thr-3,4FPhe)] | 0.35 nM | 91.5 ± 3% | 16.9 ± 0.2 nM | 62.1 ± 16.4 nM | 15.7 ± 4.3 nM |  |  |  |
| C[C@@H](O)[C@@H]1NC(=O)[C@H](CCCCN)NC(=O)[C@@H](Cc2c[nH]c3ccccc23)NC(=O)[C@H](Cc2ccccc2)NC(=O)[C@H](Cc2ccccc2)NC(=O)[C@H](CCCNC(=N)N)NC(=O)[C@H](NCCSC[C@@H]2C[C@@H]3c4cccc5[nH]cc(c45)C[C@H]3N(C)C2)CCCCNC(=O)[C@H](Cc2cc(F)cc(F)c2)NC1=O [Compound 6B, Dop1-psi(CH2NH)-cyclo(DLys-Arg-Phe-Phe-DTrp-Lys-Thr-3,5FPhe)] | 0.25 ± 0.03 nM | 85.1 ± 9.6% | 25.4 ± 7.9 nM | 112 ± 27.8 nM | 17 ± 6.5 nM |  |  |  |
| C[C@@H](O)[C@@H]1NC(=O)[C@H](CCCCN)NC(=O)[C@@H](Cc2c[nH]c3ccccc23)NC(=O)[C@H](Cc2ccccc2)NC(=O)[C@H](Cc2ccccc2)NC(=O)[C@H](CCCNC(=N)N)NC(=O)[C@H](NCCSC[C@@H]2C[C@@H]3c4cccc5[nH]cc(c45)C[C@H]3N(C)C2)CCCCNC(=O)[C@H](Cc2cccc(F)c2)NC1=O [Compound 6C, Dop1-psi(CH2NH)-cyclo(DLys-Arg-Phe-Phe-DTrp-Lys-Thr-3FPhe)] | 0.15 ± 0.04 nM | 94.4 ± 5.1% | 30.3 ± 3.7 nM | 60 ± 21.7 nM | 16.2 ± 5.9 nM |  |  |  |
| C[C@@H](O)[C@@H]1NC(=O)[C@H](CCCCN)NC(=O)[C@@H](Cc2c[nH]c3ccccc23)NC(=O)[C@H](Cc2ccccc2)NC(=O)[C@H](Cc2ccccc2)NC(=O)[C@H](CCCNC(=N)N)NC(=O)[C@H](NCCSC[C@@H]2C[C@@H]3c4cccc5[nH]cc(c45)C[C@H]3N(C)C2)CCCCNC(=O)[C@H](Cc2ccccc2F)NC1=O [Compound 6D, Dop1-psi(CH2NH)-cyclo(DLys-Arg-Phe-Phe-DTrp-Lys-Thr-2FPhe)] | 0.54 ± 0.12 nM | 101 ± 2.7% | 31.8 ± 11.8 nM | 64.5 ± 20.5 nM | 25 ± 7.7 nM |  |  |  |
| C[C@@H](O)[C@@H]1NC(=O)[C@H](CCCCN)NC(=O)[C@@H](Cc2c[nH]c3ccccc23)NC(=O)[C@H](Cc2ccccc2)NC(=O)[C@H](Cc2ccccc2)NC(=O)[C@H](CCCNC(=N)N)NC(=O)[C@H](NCCSC[C@@H]2C[C@@H]3c4cccc5[nH]cc(c45)C[C@H]3N(C)C2)CCCCNC(=O)[C@H](Cc2c(F)c(F)c(F)c(F)c2F)NC1=O [Compound 6E, Dop1-psi(CH2NH)-cyclo(DLys-Arg-Phe-Phe-DTrp-Lys-Thr-2,3,4,5,6FPhe)] | 5.48 ± 3.38 nM | 54.1 ± 20.6% | 40.4 ± 13.2 nM | 480 ± 125 nM | 223 ± 13.7 nM |  |  |  |
| C[C@@H](O)[C@@H]1NC(=O)[C@H](CCCCN)NC(=O)[C@@H](Cc2c[nH]c3ccccc23)NC(=O)[C@H](Cc2ccncc2)NC(=O)[C@H](Cc2ccccc2)NC(=O)[C@H](CCCNC(=N)N)NC(=O)[C@H](NC[C@H](CCCCNC(=O)C[S+]([O-])C[C@@H]2C[C@@H]3c4cccc5[nH]cc(c45)C[C@H]3N(C)C2)NC(=O)C[S+]([O-])C[C@@H]2C[C@@H]3c4cccc5[nH]cc(c45)C[C@H]3N(C)C2)CCCCNC(=O)[C@H](Cc2ccc(O)cc2)NC1=O (stereo partly drawn) [Compound 16, Dop1(SO)-Lys[Dop1(SO)]-psi(CH2NH)-cyclo(DLys-Arg-Phe-4Pal-DTrp-Lys-Thr-Tyr)] | 0.04 ± 0.03 nM | 95.2 ± 1.7% | 22.5 ± 1.9 nM | 4.7 ± 0.5 nM | 6 ± 0.8 nM |  |  |  |
| C[C@@H](O)[C@@H]1NC(=O)[C@H](CCCCN)NC(=O)[C@@H](Cc2c[nH]c3ccccc23)NC(=O)[C@H](Cc2ccccc2)NC(=O)[C@H](Cc2ccccc2)NC(=O)[C@H](CCCNC(=N)N)NC(=O)[C@H](NC[C@H](Cc2ccc(O)cc2)NC(=O)CSC[C@@H]2C[C@@H]3c4cccc5[nH]cc(c45)C[C@H]3N(C)C2)CCCNC(=O)[C@H](Cc2ccccc2)NC1=O [Compound 30, Dop1-Tyr-psi(CH2NH)-cyclo(DOrn-Arg-Phe-Phe-DTrp-Lys-Thr-Phe)] | 0.4 ± 0.06 nM |  |  |  | 13.1 ± 4.2 nM |  |  |  |
| C[C@@H](O)[C@@H]1NC(=O)[C@H](CCCCN)NC(=O)[C@@H](Cc2c[nH]c3ccccc23)NC(=O)[C@H](Cc2cccnc2)NC(=O)[C@H](Cc2ccccc2)NC(=O)[C@H](CCCNC(=N)N)NC(=O)[C@H](NC[C@H](Cc2ccc(O)cc2)NC(=O)CSC[C@@H]2C[C@@H]3c4cccc5[nH]cc(c45)C[C@H]3N(C)C2)CCCCNC(=O)[C@H](Cc2ccccc2)NC1=O [Compound 38, Dop1-Tyr-psi(CH2NH)-cyclo(DLys-Arg-Phe-3Pal-DTrp-Lys-Thr-Phe)] |  | 97.5 ± 0.3% |  |  |  | 179 ± 113 nM |  |  |
| C[C@@H](O)[C@@H]1NC(=O)[C@H](CCCCN)NC(=O)[C@@H](Cc2c[nH]c3ccccc23)NC(=O)[C@H](Cc2ccccc2)NC(=O)[C@H](Cc2ccccc2)NC(=O)[C@H](CCCNC(=N)N)NC(=O)[C@H](N(CCSC[C@@H]2C[C@@H]3c4cccc5[nH]cc(c45)C[C@H]3N(C)C2)CCSC[C@@H]2C[C@@H]3c4cccc5[nH]cc(c45)C[C@H]3N(C)C2)CCCCNC(=O)[C@H](Cc2ccccc2)NC1=O [Compound 40, bis[Dop1-psi(CH2N)]-cyclo(DLys-Arg-Phe-Phe-DTrp-Lys-Thr-Phe)] (RFF[dW]KTF; linker N-C via X1) | 3.17 ± 1.41 nM | 91.5% |  | 123 ± 6.5 nM | 27 ± 6.5 nM |  |  |  |
| C[C@@H](O)[C@@H]1NC(=O)[C@H](CCCCN)NC(=O)[C@@H](Cc2c[nH]c3ccccc23)NC(=O)[C@H](Cc2ccccc2)NC(=O)[C@H](Cc2ccccc2)NC(=O)[C@H](CCCNC(=N)N)NC(=O)[C@H](NC[C@@H](Cc2ccc(O)cc2)NC(=O)CSC[C@@H]2C[C@@H]3c4cccc5[nH]cc(c45)C[C@H]3N(C)C2)CCCCNC(=O)[C@H](Cc2ccccc2)NC1=O [Compound 41, Dop1-DTyr-psi(CH2NH)-cyclo(DLys-Arg-Phe-Phe-DTrp-Lys-Thr-Phe)] |  | 91.2% |  |  |  | 8.5 ± 3.6 nM | 0.37 nM |  |
| C[C@@H](O)[C@@H]1NC(=O)[C@H](CCCCN)NC(=O)[C@@H](Cc2c[nH]c3ccccc23)NC(=O)[C@H](Cc2ccccc2)NC(=O)[C@H](Cc2ccccc2)NC(=O)[C@H](CCCNC(=N)N)NC(=O)[C@H](NC(=O)[C@H](CCCCNC(=O)CSC[C@@H]2C[C@@H]3c4cccc5[nH]cc(c45)C[C@H]3N(C)C2)NC(=O)CSC[C@@H]2C[C@@H]3c4cccc5[nH]cc(c45)C[C@H]3N(C)C2)CCNC(=O)[C@H](Cc2ccccc2)NC1=O [Reference Compound C, Dopl-Lys(Dopl)-cyclo(DDab-Arg-Phe-Phe-DTrp-Lys-Thr-Phe), reference compound] (X2-K(X2)[dDab]RFF[dW]KTF; lactam 2-C (inferred)) |  | 101 ± 0.8% |  |  |  |  |  | 60.6 ± 3.2% |
